Consider six compounds from ChEMBL document CHEMBL6134916, “Novel Substituted Cyclic Compounds as SLC6A19 Inhibitors for Treating Phenylketonuria and Other Amino Acidurias” (ACS Med Chem Lett, 2025).

pIC50: −log10 of the molar value.

The assay has as its target T1, Sodium-dependent neutral amino acid transporter B(0)AT1 (Homo sapiens, UniProt Q695T7).
T1 sequence (Q695T7 whole entry): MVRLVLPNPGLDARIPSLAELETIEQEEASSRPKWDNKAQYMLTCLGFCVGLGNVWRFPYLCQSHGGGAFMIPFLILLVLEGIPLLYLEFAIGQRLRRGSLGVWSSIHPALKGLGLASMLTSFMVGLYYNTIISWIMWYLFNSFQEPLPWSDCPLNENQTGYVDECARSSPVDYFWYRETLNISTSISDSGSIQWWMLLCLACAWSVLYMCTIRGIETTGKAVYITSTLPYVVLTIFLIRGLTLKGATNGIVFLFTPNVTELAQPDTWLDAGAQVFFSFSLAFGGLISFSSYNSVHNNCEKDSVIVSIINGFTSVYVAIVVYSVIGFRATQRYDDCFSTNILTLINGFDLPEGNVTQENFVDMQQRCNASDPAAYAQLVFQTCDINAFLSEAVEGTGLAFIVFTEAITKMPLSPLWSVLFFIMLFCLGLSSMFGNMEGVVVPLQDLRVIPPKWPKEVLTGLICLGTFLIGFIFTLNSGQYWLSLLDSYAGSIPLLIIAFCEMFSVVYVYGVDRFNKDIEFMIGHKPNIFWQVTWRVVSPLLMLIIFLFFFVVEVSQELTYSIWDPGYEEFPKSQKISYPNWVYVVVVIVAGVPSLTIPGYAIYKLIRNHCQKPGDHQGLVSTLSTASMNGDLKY
Description: Inhibition of human SLC6A19 expressed in MDCK cells co-expressing human TMEM27 using 13C6/15N-L-Isoleucine as substrate preincubated for 20 mins followed by substrate addition and measured after 20 mins by stable isotope uptake assay. In kind it is cell-based.
Broadly, the pIC50 is −log10 of the IC50, conventionally taken in molar units. A low value points to a high IC50. In turn, `CNC(=O)c1cc2c(-c3ccc(C(=O)NCc4cc(C(F)(F)F)ccc4F)cc3F)cccc2[nH]1` showed a pIC50 of 8.40.

`CNC(=O)c1cc2c(-c3ccc(C(=O)NCc4cccc(C(F)(F)F)c4)cc3)cc(C(C)C)cc2[nH]1` had a negative-log IC50 (pIC50) of 8.30.

Compound `CNC(=O)c1cc2c(-c3ccc(C(=O)NCc4cccc(C(F)(F)F)c4)cc3)cc(C)c(F)c2[nH]1` had a pIC50 of 8.30.

On to `CNC(=O)c1cc2c(-c3ccc(C(=O)NCc4cccc(C(F)(F)F)c4)cc3Cl)cccc2[nH]1`, for which the pIC50 is 8.52.

In the case of `CNC(=O)c1cc2c(-c3ccc(C(=O)NCc4cccc(C(F)(F)F)c4)cc3)c(OC)ccc2[nH]1`, the pIC50 is 8.30.

Turning to `CNC(=O)c1cc2c(-c3ccc(C(=O)NCc4cccc(C(F)(F)F)c4)cc3)ccc(F)c2[nH]1`, the pIC50 is 8.40.
